melting point [°C] | SMILES
146 to 147 | COC1=C(OC)C(=O)c2c(cc(C)c(C(C)=O)c2O)C1=O [Compound 6, 7-Acetyl-2,3-dimethoxy-8-hydroxy-6-methylnaphthalene-1,4-dione]
116 to 117 | COc1c(C)c2c(c(O)c1OC)C(=O)[C@@H]1[C@@H](C)O[C@@H](C)C[C@H]1C2=O [Compound 3, (1R,3S,4aR,10aS)-7,8-Dimethoxy-9-hydroxy-1,3,6-trimethyl-3,4,4a,10a-tetrahydro-1H-naphtho[2,3-c]pyran-5,10-dione]

Source: article PMC10043937, “Pyranonaphthoquinones and Naphthoquinones from the Stem Bark of Ventilago harmandiana and Their Anti-HIV-1 Activity” (Journal of Natural Products, 2023)
